Test results published in ChEMBL document CHEMBL3046651, “Cytotoxicity and QSAR study of (thio)ureas derived from phenylalkylamines and pyridylalkylamines” (Med Chem Res, 2013).

Columns and labels:
Assay type in all cases: functional, cell-based
[1] = Cytotoxicity against Homo sapiens (human) HuCCa1 cells assessed as inhibition of cell growth after 3 days by crystal violet staining; settings: HuCC-A1, 72 h
HepG2 = assay: Cytotoxicity against Homo sapiens (human) HepG2 cells assessed as inhibition of cell growth after 3 days by MTT assay; settings: HepG2, 72 h
MOLT-3 = assay: Cytotoxicity against Homo sapiens (human) MOLT3 cells assessed as inhibition of cell growth after 3 days by crystal violet staining; settings: MOLT-3, 72 h
A549 = assay: Cytotoxicity against Homo sapiens (human) A549 cells assessed as inhibition of cell growth after 3 days by MTT assay; settings: A549, 72 h

Row | SMILES | IC50 [1] [µM] | IC50 (HepG2) [µM] | IC50 (MOLT-3) [µM] | IC50 (A549) [µM]
1 | O=[N+]([O-])c1ccc(NC(S)=NCCc2ccccc2)cc1 | 19.1 | 25.4 | 12.5 | 80.3
2 | O=C(NCCc1ccccc1)Nc1ccc(Cl)cc1 | > 182 | 37.6 | > 182 | > 182
3 | S=C(NCc1ccccn1)Nc1ccc(Cl)cc1 | > 180 | > 180 | 119 | > 180
4 | S=C(NCCc1ccccc1)Nc1ccc(Cl)cc1 | 84.2 | 44.7 | 25.1 | 75.7
5 | S=C(NCCc1ccccn1)Nc1ccc(Cl)cc1 | > 171 | > 171 | 120 | > 171
6 | O=C(NCc1ccccn1)Nc1ccc(Cl)cc1 | > 191 | > 191 | 186 | > 191
7 | COc1ccc(CCNC(=S)Nc2ccc([N+](=O)[O-])cc2)cc1OC | > 138 | 42.4 | 21.7 | 65
8 | COc1ccc(CCNC(=S)Nc2ccc(Cl)cc2)cc1OC | 139 | 60.8 | 38.9 | 129
9 | COc1ccc(CCNC(=O)Nc2ccc(Cl)cc2)cc1OC | > 149 | 52.8 | 50.7 | > 149
10 | O=[N+]([O-])c1ccc(NC(=S)NCCc2ccccn2)cc1 | > 165 | 152 | 78.7 | > 165
11 | O=C(NCCc1ccccn1)Nc1ccc(Cl)cc1 | > 181 | 22.7 | 66.9 | > 181
12 | O=[N+]([O-])c1ccc(NC(=S)NCc2ccccn2)cc1 | > 173 | 34.7 | 54.1 | > 173
13 | O=[N+]([O-])c1ccc(NC(=S)NCc2cccc(CNC(=S)Nc3ccc([N+](=O)[O-])cc3)c2)cc1 | 34.2 | 7.51 | 3.36 | 88.6
14 | S=C(NCc1cccc(CNC(=S)Nc2ccc(Cl)cc2)c1)Nc1ccc(Cl)cc1 | 52.6 | 7.63 | 1.62 | > 105
15 | COc1cccc2c1C(=O)c1c(O)c3c(c(O)c1C2=O)C[C@@](O)(C(=O)CO)C[C@@H]3O[C@H]1C[C@H](N)[C@H](O)[C@H](C)O1 [DOXORUBICIN] | 0.64 | 0.42 | – | 0.7
